Test results from ChEMBL document CHEMBL2331129, “Development and characterization of monomeric N-end rule inhibitors through in vitro model substrates” (J Med Chem, 2013).
Activity calls are given as the source filed them. No cut-off for these calls is given here.

Columns and labels:
Oryctolagus cuniculus [1] = species on record: Oryctolagus cuniculus; details: at 2 mM
Description: Inhibition of UBR protein in rabbit reticulocyte lysates assessed as inhibition of Tyr-nsP4 substrate degradation at 2 mM

Oryctolagus cuniculus [2] = species on record: Oryctolagus cuniculus; details: at 2 mM; remark: listed apart in the source
Description: Inhibition of UBR protein in rabbit reticulocyte lysates assessed as inhibition of Tyr-nsP4 substrate degradation at 2 mM by immunoblotting analysis in presence of bestatin

Oryctolagus cuniculus [3] = species on record: Oryctolagus cuniculus; assay: Inhibition of UBR protein in rabbit reticulocyte lysates assessed as inhibition of Arg-nsP4 substrate degradation at 2 mM after 30 mins by Western blot analysis
[4] = Inhibition of UBR protein in rabbit reticulocyte lysates assessed as inhibition of Arg-nsP4 substrate degradation by in vitro synthesis/degradation assay; set-up: species or system Oryctolagus cuniculus
Oryctolagus cuniculus [5] = species on record: Oryctolagus cuniculus; assay: Inhibition of UBR protein in rabbit reticulocyte lysates assessed as inhibition of Arg-nsP4 substrate degradation at 2 mM by SDS-PAGE in presence of bestatin
Oryctolagus cuniculus [6] = species on record: Oryctolagus cuniculus; assay: Inhibition of UBR protein in rabbit reticulocyte lysates assessed as inhibition of RGS4 substrate degradation at 2 mM after 30 to 60 mins in presence of bestatin
Oryctolagus cuniculus [7] = species on record: Oryctolagus cuniculus
Description: Inhibition of UBR protein in rabbit reticulocyte lysates assessed as inhibition of Tyr-nsP4 substrate degradation measuring substrate half life at 2 mM

Oryctolagus cuniculus [8] = species on record: Oryctolagus cuniculus; assay: Inhibition of UBR protein in rabbit reticulocyte lysates assessed as inhibition of Arg-nsP4 substrate degradation at 1 mM after 30 mins by Western blot analysis
[9] = Inhibition of UBR protein in rabbit reticulocyte lysates assessed as inhibition of Tyr-nsP4 substrate degradation by in vitro synthesis/degradation assay; set-up: species or system Oryctolagus cuniculus
Oryctolagus cuniculus [10] = species on record: Oryctolagus cuniculus; assay: Inhibition of UBR protein in rabbit reticulocyte lysates assessed as inhibition of Arg-nsP4 substrate degradation at 6 mM by SDS-PAGE in presence of bestatin

Row | SMILES | inhibition (Oryctolagus cuniculus [1]) | inhibition (Oryctolagus cuniculus [2]) | also measured
1 | COC(=O)CCCCNC(=O)[C@@H](N)Cc1ccccc1 | Active | Active | –
2 | C[C@H](NC(=O)[C@@H](N)CCCN=C(N)N)C(=O)O | – | – | inhibition (Oryctolagus cuniculus [3]): Active; IC50 [4]: 1200 µM; inhibition (Oryctolagus cuniculus [5]): Active; inhibition (Oryctolagus cuniculus [6]): Active
3 | NC(=O)[C@@H](N)Cc1ccccc1 | Active | inactive | –
4 | N=C(N)NCCC[C@@H](N)C(=O)N[C@@H](Cc1ccccc1)C(=O)O | – | – | inhibition (Oryctolagus cuniculus [6]): inactive
5 | CC(N)Cc1ccc(Cl)cc1 (configuration not stated) | – | Active | T1/2 (Oryctolagus cuniculus [7]): 1.05 h; IC50 [4]: 935 µM; inhibition (Oryctolagus cuniculus [8]): Active; IC50 [9]: 1170 µM
6 | CC(N)Cc1ccccc1 (configuration not stated) | – | Active | –
7 | CC(=O)N[C@@H](Cc1ccccc1)C(=O)O | inactive | inactive | –
8 | C[C@H](NC(=O)[C@H](N)CCCNC(=N)N)C(=O)O | – | – | inhibition (Oryctolagus cuniculus [10]): inactive; inhibition (Oryctolagus cuniculus [6]): inactive
9 | CC(=O)N[C@@H](Cc1ccccc1)C(=O)N[C@@H](C)C(=O)O | – | inactive | –
10 | C[C@H](NC[C@@H](N)Cc1ccccc1)C(=O)O | – | inactive | –
11 | CC(=O)N[C@@H](Cc1ccccc1)C(N)=O | inactive | inactive | –
12 | NC(N)=NCCC[C@H](N)C(=O)N[C@@H](Cc1ccccc1)C(=O)O | – | – | inhibition (Oryctolagus cuniculus [6]): Active
13 | N[C@@H](Cc1ccccc1)C(=O)NCCC(=O)O | Active | Active | –
14 | N[C@@H](Cc1ccccc1)C(=O)NCCCCC(=O)O | Active | Active | –
15 | N[C@@H](Cc1ccccc1)C(=O)NCCCP(=O)(O)O | Active | Active | –
16 | CCCCCNC(=O)[C@@H](N)Cc1ccccc1 | Active | Active | –
